Measured values published in ChEMBL document CHEMBL3638669, “Substituted 2-(chroman-6-yloxy)-thiazoles and their use as pharmaceuticals” (2014).

Experiments:
[1] = target: T1, Sodium/calcium exchanger 1 (Homo sapiens, UniProt P32418); assay: Forward Mode Assay: The assay is based on the monitoring of intracellular Ca2+concentrations using the PBX Calcium Assay Kit from BD (Becton, Dickinson and Company) with calcium indicator dye 51-9000177BKa (BD, 640177), CHO cells expressing NCX1 were loaded with the dye, and after a preincubation period with the test compound, lonomycin (Calbiochem, 407950) was added. Ionomycin is an ionophor for Ca2+ions mediating an increase of intracellular Ca2+ions. Consequently, intracellular Ca2+ions are exchanged against extracellular Na+ions (Ca2+efflux, forward mode). The decrease of intracellular Ca2+ions was detected by measuring the fluorescence of the calcium indicator dye at a wavelength of 520 nm by a FLIPR device.Briefly, similarly as for the reverse mode, for the forward mode transport assay 18000 cells per well were seeded into a 96 well microplate (Corning COSTAR 3904) and incubated overnight in culture medium (cf. above). A total volume of 100 ul medium per well was used.; format: cell-based
[2] = target: T1, Sodium/calcium exchanger 1; assay: Reverse Mode Assay: The assay is based on the monitoring of intracellular Ca2+concentrations using the calcium-sensitive dye Fluo-4. CHO cells expressing NCX1 were loaded with the dye by means of the acetoxymethyl ester Fluo-4 AM (Invitrogen, F14202), which is cleaved intracellularly by esterase activity to yield the charged species of free Fluo-4. After an preincubation period with the test compound, Gramicidine (Sigma, G5002) was added. Gramicidine is an ionophor for Na+ions mediating an increase of intracellular Na+ions. Consequently, intracellular Na+ions are exchanged against extracellular Ca2+ions (Ca2+influx, reverse mode). The intracellular elevation of Ca2+ ions was detected by measuring the fluorescence of Fluo-4 at a wavelength of 520 nm by a FLIPR device.Briefly, for the reverse mode transport assay 18000 cells per well were seeded into a 96 well microplate (Corning COSTAR 3904) and incubated overnight in culture medium (1x Nut Mix F12 (Ham) (Gibco, 21765-029); 10% (v/v) fetal calf serum.; format: cell-based

T1 sequence (P32418 36-973 limits assumed): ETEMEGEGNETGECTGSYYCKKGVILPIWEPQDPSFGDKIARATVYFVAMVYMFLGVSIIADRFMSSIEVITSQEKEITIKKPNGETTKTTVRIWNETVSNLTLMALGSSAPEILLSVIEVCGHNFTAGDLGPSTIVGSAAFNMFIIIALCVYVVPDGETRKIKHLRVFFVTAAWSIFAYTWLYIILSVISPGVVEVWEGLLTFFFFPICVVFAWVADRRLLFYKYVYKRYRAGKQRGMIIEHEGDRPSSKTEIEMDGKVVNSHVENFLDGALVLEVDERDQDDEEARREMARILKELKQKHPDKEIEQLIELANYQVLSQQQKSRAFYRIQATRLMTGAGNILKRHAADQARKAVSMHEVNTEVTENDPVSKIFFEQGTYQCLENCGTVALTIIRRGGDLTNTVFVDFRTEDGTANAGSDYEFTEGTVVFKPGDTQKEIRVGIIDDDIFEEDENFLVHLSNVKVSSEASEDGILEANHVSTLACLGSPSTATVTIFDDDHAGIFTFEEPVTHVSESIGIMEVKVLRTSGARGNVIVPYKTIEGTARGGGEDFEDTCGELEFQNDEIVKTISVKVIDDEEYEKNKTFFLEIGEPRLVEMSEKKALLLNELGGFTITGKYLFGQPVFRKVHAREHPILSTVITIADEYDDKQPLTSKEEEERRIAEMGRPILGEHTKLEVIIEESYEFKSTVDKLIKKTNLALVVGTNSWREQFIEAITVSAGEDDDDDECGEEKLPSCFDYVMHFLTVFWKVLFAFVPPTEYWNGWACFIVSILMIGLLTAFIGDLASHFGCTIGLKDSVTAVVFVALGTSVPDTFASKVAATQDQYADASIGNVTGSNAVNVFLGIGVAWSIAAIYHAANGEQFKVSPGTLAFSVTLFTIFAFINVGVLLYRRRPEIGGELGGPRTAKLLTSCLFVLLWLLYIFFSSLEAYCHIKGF

SMILES | IC50 [1] | IC50 [2]
Cc1ccccc1C1CCc2cc(Oc3ncc(C(=O)NCc4ccnc(Cl)c4)s3)ccc2O1 (configuration not stated) | 1.9 µM | 
NCCCNC(=O)c1cnc(Oc2ccc3c(c2)CC[C@@H](c2ccccc2)O3)s1 |  | 0.3 µM
